According to paper PMC7601446, “Significant Decreased Expressions of CaN, VEGF, SLC39A6 and SFRP1 in MDA-MB-231 Xenograft Breast Tumor Mice Treated with Moringa oleifera Leaves and Seed Residue (MOLSr) Extracts” (Nutrients, 2020):

Key:
calcineurin (CaN) = test: Serum ELISA of calcineurin in xenograft mice; type: in vivo; conditions: high-dose M1S9 or TAM 30 mg/kg vs non-treated xenograft mice
Procedure: (§1) Body weight and tumor volume were measured weekly up to two months. The tumor-growth-inhibition rate (I.R.) was calculated using the following formula: I.R. (%) = {[(Average tumor volume of the control − average tumor volume of the treated group)/Average tumor volume of the control] * 100%}. After two months, serum blood was collected for biochemical analysis. Subsequently, all organs (liver, kidney, spleen, heart and lung) and tumors were excised, weighted and calculated as relative organ weight (expressed as the percentage of organ weight to body weight). The tumors were snap-frozen in liquid nitrogen for gene expression analysis later.
(§2) Serum blood was subjected to biochemical analysis on calcineurin (CaN), estrogen (ES) and vascular endothelial cell growth factor (VEGF) proteins using ELISA kits (FineTest, Wuhan, China), following the manufacturer’s instructions. […] Eluted RNA was quantitated and purity-checked using UV-absorbance-based NanoDrop® (Thermo Scientific, Wilmington, NC, USA) and Agilent 2100 Bioanalyzer RNA 6000 Nano Chip (Agilent, Palo Alto, CA, USA), respectively. […] Threshold cycle (CT) of each gene was analyzed for ΔΔCT after normalization using housekeeping genes in the web-based RT^2 Profiler Data Analysis Software (https://www.qiagen.com/my/shop/genes-and-pathways/data-analysis-center-overview-page/).

estrogen (ES) = test: Serum ELISA of estrogen in xenograft mice; type: in vivo; conditions: TAM 30 mg/kg vs non-treated xenograft mice
[1] = Body weight and relative organ weight in MDA-MB-231 xenograft mice; type: in vivo, NOD/ShiJic-SCID mice; conditions: up to eight weeks
Procedure: Animal study was approved by the UiTM Committee on Animal Research and Ethics (Ethic approval number: UiTM CARE 278/2019 (05/04/2019)). All animal experiments were conducted in accordance with standard ethical guidelines. Six- to eight-week-old female SPF NOD/ShiJic-SCID mice were obtained from Nomura Siam International (Bangkok, Thailand). […] To evaluate the tumorigenesis in the animal model, the highly aggressive MDA-MB-231 cell lines were injected into SCID mice to induce the breast cancer model. MDA-MB-231 cell lines (ATCC® HTB-26TM) were grown in Leibovitz's medium (L15) (HyClone, Rd. Logan, UT, USA) with 10% fetal bovine serum (FBS) (Gibco, Gaithersburg, MD, USA) and 1% penicillin-streptomycin (Beyotime Biotechnology, Haimen, Jiangsu, China) in a humidified incubator at 37 °C without CO2. Mice were subcutaneously injected with 3 × 10^6/100 μL MDA-MB-231 cells into the right flank region in the SCID mice. […] Body weight and tumor volume were measured weekly up to two months. […] Subsequently, all organs (liver, kidney, spleen, heart and lung) and tumors were excised, weighted and calculated as relative organ weight (expressed as the percentage of organ weight to body weight). […]

[2] = system: 84 key human breast cancer genes in MDA-MB-231 xenograft tumor; test: Human Breast Cancer RT2 Profiler PCR array on excised tumor; type: in vivo, mice; conditions: TAM-treated vs non-treated, p < 0.05
Procedure: as §1
Serum blood was subjected to biochemical analysis on calcineurin (CaN), estrogen (ES) and vascular endothelial cell growth factor (VEGF) proteins using ELISA kits (FineTest, Wuhan, China), following the manufacturer’s instructions. The Human Breast Cancer RT^2 Profiler PCR array (Rotor-Gene® Format) (PAHS-131ZR, Qiagen® GmbH, Hilden, Germany) was used to profile the expression of 84 genes associated with key human breast cancer pathways. Briefly, total RNA was isolated from pulverized tumor tissues of non-treated (negative control), high-dose M1S9-treated mice and TAM-treated (positive control) using RNeasy® Lipid Tissue Mini kit (Qiagen® GmbH, Hilden, Germany). Three biological replicates were prepared from each group. Eluted RNA was quantitated and purity-checked using UV-absorbance-based NanoDrop® (Thermo Scientific, Wilmington, NC, USA) and Agilent 2100 Bioanalyzer RNA 6000 Nano Chip (Agilent, Palo Alto, CA, USA), respectively. A total of 1000 ng of RNA sample was converted to cDNA using RT^2 First Strand Kit (Qiagen® GmbH, Hilden, Germany) according to the manufacturer’s protocol. The cDNA was then mixed with RT^2 SYBR Green ROX FAST Mastermix and RNase-free water before dispensing into the array and then subjected to Rotor-Gene® Q real time PCR cycler (Qiagen® GmbH, Hilden, Germany) for analysis. Threshold cycle (CT) of each gene was analyzed for ΔΔCT after normalization using housekeeping genes in the web-based RT^2 Profiler Data Analysis Software (https://www.qiagen.com/my/shop/genes-and-pathways/data-analysis-center-overview-page/).

[3] = system: MDA-MB-231 xenograft tumor; test: In vivo tumorigenicity study, MDA-MB-231 xenograft mice; set-up: species or system NOD/ShiJic-SCID mice
Procedure: Animal study was approved by the UiTM Committee on Animal Research and Ethics (Ethic approval number: UiTM CARE 278/2019 (05/04/2019)). All animal experiments were conducted in accordance with standard ethical guidelines. Six- to eight-week-old female SPF NOD/ShiJic-SCID mice were obtained from Nomura Siam International (Bangkok, Thailand). All mice were housed in the pathogen-free environment under controlled conditions (temperature 20–26 °C, humidity 40–70%, light/dark cycle 12 h/12 h) and received water and food ad libitium. To evaluate the tumorigenesis in the animal model, the highly aggressive MDA-MB-231 cell lines were injected into SCID mice to induce the breast cancer model. MDA-MB-231 cell lines (ATCC® HTB-26™) were grown in Leibovitz’s medium (L15) (HyClone, Rd. Logan, UT, USA) with 10% fetal bovine serum (FBS) (Gibco, Gaithersburg, MD, USA) and 1% penicillin-streptomycin (Beyotime Biotechnology, Haimen, Jiangsu, China) in a humidified incubator at 37 °C without CO2. Mice were subcutaneously injected with 3 × 10^6/100 μL MDA-MB-231 cells into the right flank region in the SCID mice.
as §1

[4] = system: vascular endothelial cell growth factor (VEGF); test: Serum ELISA of VEGF in xenograft mice; type: in vivo; conditions: high-dose M1S9 or TAM 30 mg/kg vs non-treated xenograft mice
Procedure: as §1, §2

[5] = Ferric reducing antioxidant power (FRAP) assay; conditions: mean ±2 standard deviation (n = 3)
Procedure: Moringa mixtures were subjected to phytochemical analysis following methods described by Harborne (1998) and Kokate (2005), which are based on visual observation of color changes or the formation of precipitates. Quantitative analysis of total flavonoid content (TFC) and total phenolic content (TPC) of moringa mixtures were determined spectrophotometrically by the aluminum calorimetric method (quercetin as the reference standard) and Folin–Ciocalteu method (gallic acid as the reference standard) with minor modifications, respectively. […] These antioxidant assays were carried out according to Yang et al. (2011) with slight modifications. Detailed steps were described previously by Abdul Hisam et al. (2018). All the experiments were conducted in triplicate.

Which CaN protein level (calcineurin (CaN)) does the source give for `CC/C(=C(\c1ccccc1)c1ccc(OCCN(C)C)cc1)c1ccccc1` [TAM, tamoxifen] here?
The CaN protein level was “decreased significantly”.

What about the ES protein level (estrogen (ES)) of the same molecule?
Its ES protein level is “decreased significantly”.

What about the body weight changes [1] of the same molecule?
The body weight changes was “no significant difference”.

And the AR gene expression [2]?
Its AR gene expression is “induced significantly”.

And the CTNNB1 gene expression [2]?
Its CTNNB1 gene expression is “suppressed significantly”.

And the ESR1 gene expression [2]?
Its ESR1 gene expression is “induced significantly”.

And the IL6 gene expression [2]?
The IL6 gene expression was “induced significantly”.

And the MYC gene expression [2]?
The MYC gene expression was “induced significantly”.

And the NR3C1 gene expression [2]?
The NR3C1 gene expression was “induced significantly”.

What about the THBS1 gene expression [2] of the same molecule?
Its THBS1 gene expression is “induced significantly”.

What about the “tumor volume compared to the control mice” value ([3]; M1S9 all three doses, TAM 30 mg/kg, up to six weeks, p < 0.05) of the same molecule?
Its value is “significant reduction”.

And the “tumor growth inhibition (highest inhibition rate)” value ([3]; TAM 30 mg/kg subcutaneously, sixth week)?
The value was “up to 80.5%”.

What about the tumor growth inhibition ([3]; TAM 30 mg/kg subcutaneously, third week) of the same molecule?
The tumor growth inhibition was 69.1%.

What about the VEGF protein level [4] of the same molecule?
Its VEGF protein level is “decreased significantly”.

Which FRAP [5] does the source give for `O=C1O[C@H]([C@@H](O)CO)C(O)=C1O` [ascorbic acid] here?
The FRAP was 172.41 ± 12.6 ^$ µg Trolox/mg.
